Assay results reported in PMC12750388, “Coumarin-1,2,3-Triazole Conjugates as Molecular Scaffolds for the Selective Induction of ROS-Driven Apoptosis in Cancer Cells in the Development of Pyruvate Kinase M2 Inhibitors” (ACS Omega, 2025).
Where “and” joins values, the source holds several entries; their conditions need not be identical. Equal entries are not always repeated.

Key:
[1] = test system: SCC-4; test: MTT cell viability assay, SCC-4; type: cell-based, human
Experimental: The viability of SCC cell lines and primary human fibroblast cells was evaluated using the MTT assay to determine half maximal inhibitory concentration (IC50). Briefly, cells were grown in triplicate in 96-well plates (5 × 10^3 cells/well) until confluence. Then the medium was removed, fresh medium was added, and the cells were returned to the incubator in the presence of different compounds. DMSO at the same concentrations was used as a 100% cell viability control. After 48 h, cells were incubated with 5 mg/mL MTT reagent (3-(4,5-dimethyl-2-thiazolyl)-2,5-diphenyl-2-H-tetrazolium bromide) (Sigma-Aldrich Co., St. Louis, MO, USA) for 3.5 h. After that, formazan crystals were dissolved in MTT solvent solution (DMSO/methanol 1:1 v/v), and the absorbance at 560 nm was evaluated using an EPOCH microplate spectrophotometer (BioTek Instruments, Winooski, VT, USA) with the background absorbance at 670 nm subtracted. Each of the 12 compounds (7a–7l) was tested at six different concentrations, ranging from 6.25 to 200 μM in cancer and normal cell lines. Control (carboplatin) was tested at six different concentrations ranging from 25 μM to 800 μM in cancer cells and from 50 μM to 1600 μM in normal cells.
Half-maximal inhibitory concentration (IC50) values were obtained from the MTT assay of at least three independent replicates through nonlinear regression analysis using GraphPad Prism 5.0 software (Intuitive Software for Science, San Diego, CA, USA). Data were presented as means ± standard deviation (SD). A log dose–response curve (inhibitor vs response) using the least-squares method was used to determine the IC50 and SD from the data. The selectivity index (SI) was calculated as the ratio between the IC50 in normal cells and the IC50 in cancer cells, obtained by dividing the IC50 of normal cells by the IC50 of cancer cells.

[2] = test system: 4T1; test: MTT cell viability assay, 4T1; type: cell-based, murine
[3] = test system: SCC-9 cells; test: Cell cycle and sub-G1 analysis by flow cytometry; type: cell-based, human
Experimental: The interference of 7f in the cell cycle (G1, […], and G2/M) and DNA fragmentation (sub-G1) was assessed by flow cytometry analysis using a Guava Muse Cell Analyzer (Cytek Biosciences, Fremont, CA, USA). DNA staining was conducted using a pH 7.6 propidium iodide buffer composed of 3.4 mM Trizma Hydrochloride (Sigma-Aldrich Co., St. Louis, MO, USA), 10 mM NaCl (Sigma-Aldrich Co., St. Louis, MO, USA), 0.1% (v/v) NP40 (Sigma-Aldrich Co., St. Louis, MO, USA), 700 U/L RNase, and 0.075 mM propidium iodide (Sigma-Aldrich Co., St. Louis, MO, USA). An amount of 1 × 10^5 and 5 × 10^5 SCC-9 cells were seeded in six-well plates for the treatment with the negative control (DMSO) and 7f, respectively. […] Cells were then trypsinized and stained with propidium iodide buffer. DNA content was analyzed by collecting 10,000 events in the aforementioned cytometer. Data were analyzed using Flowing Software (Turku Biosciences, Turku, Finland).

[4] = test system: SCC-9 cells; test: ROS-Glo H2O2 assay; type: cell-based, human; settings: SCC-9, 2 × IC50, 12 and 24 h
Experimental: The production of reactive oxygen species (ROS) was assessed by the detection of hydrogen peroxide (H2O2) using the ROS-Glo H2O2 assay kit (Promega Corporation, Madison, WI, USA; G8820). […] A plate with wells without cells was used as a control. Cells and cell-free wells remained in treatment at times of interest, and 2 h before completion of the times, well volumes were removed to reduce to 40 μL per well. Then the positive control of menadione (Sigma-Aldrich Co., St. Louis, MO, USA), a polycyclic aromatic ketone based on 1,4-naphthoquinone, was used to treat its respective well, and H2O2 substrate from the kit was added for all treatments, followed by the incubation of the plate for the remaining 2 h. Then the detection solution was added, and the plates remained at room temperature for 20 min, following the reading in the TD 20/20 luminometer (Turner Designs, Sunnyvale, CA, USA). The reading of bioluminescence detected is indicated as arbitrary units (a.u.). Additionally, the cell viability was assessed through pretreatment of cells with 10 mM N-acetyl-L-cysteine (NAC) (Sigma-Aldrich Co., St. Louis, MO, USA) for 2 h. […] At the end of the time, the MTT cell viability assay was performed.

[5] = test system: SCC-9 cells; test: Cytotoxicity assay (cell death inhibition) with z-VAD-fmk and necrostatin-1; type: cell-based; settings: SCC-9, 2 × IC50 7f, 24 h
Experimental: This investigation consists of pretreating cells with different death inhibitors. For this assay, day SCC-9 cells were seeded in a 96-well plate, and the next day, they were pretreated for 2 h with 20 μM z-VAD-fmk (ZVAD) (Promega Corporation, Madison, WI, USA) and 20 μM necrostatin-1 (Nec-1) (Sigma-Aldrich Co., St. Louis, MO, USA) alone or in combination. […] The plate was incubated for 24 h, and the result was determined through an MTT cell viability assay. The absorbance was measured with an EPOCH (BioTek Instruments, Winooski, VT, USA) spectrometer at 560 nm.

[6] = target: T1, PKM2 (Homo sapiens, UniProt P14618); test: LDH-coupled Pyruvate Kinase M2 activity assay; type: biochemical
T1 construct: purchased Sigma-Aldrich Co., St. Louis, MO, USA
Experimental: LDH-coupled Pyruvate Kinase M2 (PKM2) activity assay was performed according to published protocols. For the assay, a pH 7.5 buffer solution composed of 50 mM Tris, 100 mM KCl, and 10 mM MgCl2 was prepared, to which 30 ng of human recombinant PKM2 (Sigma-Aldrich Co., St. Louis, MO, USA), 0.6 mM adenosine diphosphate (ADP), 0.5 mM phosphoenolpyruvate (PEP), 180 μM NADH, 10 μM fructose 1,6-bisphosphate (FBP), and 8 units of LDH were added. PEP was added only right before measurement to start the reaction. The change in absorbance at 340 nm due to oxidation of NADH by LDH was measured from 0 to 30 min using an EPOCH microplate spectrophotometer (BioTek Instruments, Winooski, VT, USA). The activity of PK was defined as % in relation to the indicated control.

T1 sequence (P14618 whole entry): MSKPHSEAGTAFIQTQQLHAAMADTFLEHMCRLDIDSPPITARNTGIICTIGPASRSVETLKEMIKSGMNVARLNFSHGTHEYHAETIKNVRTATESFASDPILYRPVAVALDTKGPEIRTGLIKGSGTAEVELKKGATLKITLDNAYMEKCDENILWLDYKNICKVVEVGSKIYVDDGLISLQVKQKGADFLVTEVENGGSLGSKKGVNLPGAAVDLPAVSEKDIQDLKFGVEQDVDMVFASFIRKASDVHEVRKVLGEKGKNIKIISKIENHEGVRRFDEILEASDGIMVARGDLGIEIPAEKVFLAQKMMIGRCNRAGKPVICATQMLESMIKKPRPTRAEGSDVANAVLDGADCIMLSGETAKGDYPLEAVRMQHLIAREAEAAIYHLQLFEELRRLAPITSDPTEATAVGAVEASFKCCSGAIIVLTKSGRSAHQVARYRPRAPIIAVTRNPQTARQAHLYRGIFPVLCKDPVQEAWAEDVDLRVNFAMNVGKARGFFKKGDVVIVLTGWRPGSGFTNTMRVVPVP

In the case of `O=C1C=C(OCc2cn(CCCOc3cc(=O)oc4ccccc34)nn2)C(=O)c2ccccc21` [Compound 7f, 2-((1-(3-((2-Oxo-2H-chromen-4-yl)oxy)propyl)-1H-1,2,3-triazol-4-yl)methoxy)naphthalene-1,4-dione], the IC50 ([1]; Homo sapiens, SCC-4, MTT, 48 h) is reported as 7.93 µM, the “SI SCC-4” value ([1]; IC50 human gingival fibroblast / IC50 SCC-4) is reported as 2.87 and the IC50 ([2]; Mus musculus, 4T1, MTT, murine breast cancer) is reported as 7.63 µM. The “SI 4T1” value ([2]; versus human gingival fibroblast) was 2.98, the “S-phase arrest versus control (DMSO)” value ([3]; SCC-9, 2 × IC50, 24 h) was “approximately twice as frequent as in the control group” and the “cell cycle S population” value ([3]; SCC-9, 2 × IC50, 24 h (DMSO 12.33%)) was 22.99%. For the same compound, the “cell cycle G2/M population” value ([3]; SCC-9, 2 × IC50, 24 h (DMSO 22.59%)) was 14.45%, the “cell cycle G1 population” value ([3]; SCC-9, 2 × IC50, 24 h (DMSO 64.99%)) was 62.31% and the “Sub-G1 population (DNA fragmentation)” value ([3]; SCC-9, 2 × IC50, 48 h (DMSO 5.04%)) was 29.84%. For the same compound, the “increase in the sub-G1 population” value ([3]; SCC-9, 48 h, versus DMSO) was 5 fold, the “production of hydrogen peroxide (H2O2) / ROS” value [4] was “significant increase in ROS after 12 and 24 h” and the “cell death after pretreatment with 20 μM z-VAD-fmk (ZVAD)” value [5] was “significantly attenuated”. For the same compound, the “cytotoxic effect after pretreatment with 20 μM necrostatin-1 (Nec-1), alone or with ZVAD” value [5] was “failed to reverse the cytotoxic effect”, the “PKM2 % of activity relative to control” value ([6]; 0.8 µM 7f, experimental replicates 1-5, LDH-coupled assay, vs DMSO) was 96.14% and 81.36% and 72.11% and 97.25% and 76.4557% and the “PKM2 % of activity relative to control” value ([6]; 4 µM 7f, experimental replicates 1-5, LDH-coupled assay, vs DMSO) was 88.82% and 107.0205% and 91.86% and 99.18%. For the same compound, the remaining activity at 4 µM ([6]; 4 µM 7f, experimental replicates 1-5, LDH-coupled assay, vs DMSO, read-out: PKM2 % of activity relative to control) was 96.2%, the “PKM2 % of activity relative to control” value ([6]; 20 µM 7f, experimental replicates 1-5, LDH-coupled assay, vs DMSO) was 87.42% and 68.0203% and 47.4026% and 85.71% and 68.03% and the “PKM2 % of activity relative to control” value ([6]; 100 µM 7f, experimental replicates 1-5, LDH-coupled assay, vs DMSO) was 42.39% and 13.86% and 46.13% and 34.17% and 45.14%. The IC50 ([6]; LDH-coupled assay, 0.8 μM to 100 μM, 30 min) was 55.1 µM.
